Assay results published in US10065990B2, “Cyclic peptide compound, and preparation method, pharmaceutical composition and use thereof” (HANGZHOU GUANYU BIO-MEDICAL CO., LTD, priority 2013, dated 2018).
Where two headings read alike, the source gives them in different places.

Tests used:
HDAC8 = target: T1, HDAC8 (Homo sapiens, UniProt Q9BY41); assay: HDAC biochemical activity measurement (fluorescent substrate deacetylation); details: 37° C. 30 minutes
T1 sequence (Q9BY41 1-377): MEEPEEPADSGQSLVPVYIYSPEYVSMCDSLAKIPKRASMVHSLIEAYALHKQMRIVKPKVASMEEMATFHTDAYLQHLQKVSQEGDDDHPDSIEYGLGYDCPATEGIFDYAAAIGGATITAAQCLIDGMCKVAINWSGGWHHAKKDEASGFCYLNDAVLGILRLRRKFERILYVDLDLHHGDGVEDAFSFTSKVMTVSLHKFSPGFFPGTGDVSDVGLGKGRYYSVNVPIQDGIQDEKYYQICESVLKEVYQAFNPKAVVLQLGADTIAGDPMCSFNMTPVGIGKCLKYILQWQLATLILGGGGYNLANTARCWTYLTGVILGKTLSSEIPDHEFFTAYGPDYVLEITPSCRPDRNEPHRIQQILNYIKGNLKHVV
Experimental: (§2) The chemical activity of the compound is determined according to the degree of deacetylation inhibition of the HDAC enzyme. This experiment measured the degree of deacetylation related to tumor proliferation and metastasis of HDAC1, HDAC2, HDAC3, HDAC8, HDAC11 five subtypes HDAC enzymes. After the substrate containing an acetylated lysine side chain and HDAC enzyme are labeled with a fluorescent label, the fluorescent substrate is de acetyl. The fluorescent labeled substrate is cleaved by the enzyme, and the fluorescent substance is released, which generates 460 nm emission light under the excitation of 360 nm light.
(§3) HDAC substrate was diluted with reaction buffer to 200M (reaction concentration of 20M), the HDAC enzyme was diluted to the appropriate concentration, then added different concentrations of the test compounds and acted at 37° C. 30 minutes, and then added the same volume of 2-times concentration substrate developing solution (developer), incubated at room temperature for 15 minutes.

[1] = tested on: H1975 (non-small cell lung adenocarcinoma); assay: MTT cancer cell growth inhibition; assay type: cell-based; details: MTT, 72 hours incubation, H1975 cells, read-out: GI50 H1975
Outline: (§1)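 GI50 values come from MTT viability: after 72 h compound exposure (final 10^−5–10^−10 M, three wells each) of cells plated overnight at 1500/well in 10% FBS medium, MTT was given for 4 h. The DMSO-solubilised formazan was then measured at 570 nm.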

[2] = tested on: HCC827 (human non-small cell lung cancer cells); assay: MTT cancer cell growth inhibition; assay type: cell-based; details: MTT, 72 hours incubation, HCC827 cells, read-out: GI50 HCC827
Outline: as §1

[3] = tested on: K562 (human leukemia cells); assay: MTT cancer cell growth inhibition; assay type: cell-based; details: MTT, 72 hours incubation, K562 cells, read-out: GI50 K562
Outline: as §1

[4] = tested on: KBM-5 (human chronic myelogenous leukemia); assay: MTT cancer cell growth inhibition; assay type: cell-based; details: MTT, 72 hours incubation, KBM-5 cells, read-out: GI50 KBM-5
Outline: as §1

[5] = tested on: N-87 (human gastric cancer cells); assay: MTT cancer cell growth inhibition; assay type: cell-based; details: MTT, 72 hours incubation, N-87 cells, read-out: GI50 N-87
Outline: as §1

[6] = tested on: PANC-1 (Pac-1, human pancreatic cancer cells); assay: MTT cancer cell growth inhibition; assay type: cell-based; details: Homo sapiens, PANC-1, 72 h, MTT
Outline: as §1

[7] = tested on: lncap (prostate cancer cells); assay: MTT cancer cell growth inhibition; assay type: cell-based; details: Homo sapiens, LNCaP, 72 h, MTT
Outline: as §1

HDAC3 = HDAC3 (Homo sapiens, UniProt O15379); assay: HDAC biochemical activity measurement (fluorescent substrate deacetylation);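 note: fluorogenic acetyl-lysine substrate (20 µM) deacetylated by HDAC3, then developer added for 15 min at room temperature, release of fluorophore read at excitation 360 nm, emission 460 nm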
HDAC11 = target: T2, HDAC11 (Homo sapiens, UniProt Q96DB2); assay: as above;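 note: HDAC11 enzyme acting on an acetyl-lysine fluorogenic substrate, then a developer frees the fluorophore, read at excitation 360 nm and emission 460 nm, IC50 over a compound dilution series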
T2 sequence (Q96DB2 1-347): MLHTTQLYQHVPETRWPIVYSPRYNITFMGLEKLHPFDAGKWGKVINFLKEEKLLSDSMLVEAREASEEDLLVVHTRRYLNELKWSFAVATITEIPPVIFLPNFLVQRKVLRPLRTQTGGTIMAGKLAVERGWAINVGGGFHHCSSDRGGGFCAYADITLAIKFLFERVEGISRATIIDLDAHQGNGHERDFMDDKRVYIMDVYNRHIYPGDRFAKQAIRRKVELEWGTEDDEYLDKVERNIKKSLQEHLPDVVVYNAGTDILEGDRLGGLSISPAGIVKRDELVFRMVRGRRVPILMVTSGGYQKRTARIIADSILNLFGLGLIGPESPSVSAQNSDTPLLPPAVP
Experimental: as §2, §3

[8] = 72 hours, present invention, read-out: GI50 PANC-1, a
[9] = PANC-1 cells, 72 hours incubation, read-out: GI50 PAN
[10] = 72 hours, present invention, read-out: GI50 lncap, a
[11] = lncap cells, 72 hours incubation, read-out: GI50 lnca
[12] = read-out: IC50 HDAC3, HDAC3, 37° C. 30 minutes
[13] = read-out: IC50 HDAC11, HDAC11, 37° C. 30 minutes
[14] = 72 hours incubation, read-out: GI50 PAN
[15] = 72 hours incubation, read-out: GI50 lnca

Chain of HDAC3 (O15379 whole entry, species assumed): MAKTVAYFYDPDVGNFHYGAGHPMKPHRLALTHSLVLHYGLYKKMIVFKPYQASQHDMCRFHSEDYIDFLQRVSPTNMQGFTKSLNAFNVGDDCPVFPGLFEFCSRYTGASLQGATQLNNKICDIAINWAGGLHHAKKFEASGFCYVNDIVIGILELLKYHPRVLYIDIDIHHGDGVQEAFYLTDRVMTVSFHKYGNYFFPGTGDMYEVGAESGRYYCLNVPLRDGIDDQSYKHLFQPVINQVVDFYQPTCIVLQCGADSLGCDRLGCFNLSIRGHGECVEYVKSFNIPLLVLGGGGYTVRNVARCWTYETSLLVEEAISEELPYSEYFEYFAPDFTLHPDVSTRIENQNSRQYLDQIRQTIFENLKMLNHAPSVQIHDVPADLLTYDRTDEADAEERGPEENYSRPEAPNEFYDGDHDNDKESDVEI
Chain of HDAC3 (Q9Y618 395-489 partner limits assumed, species assumed): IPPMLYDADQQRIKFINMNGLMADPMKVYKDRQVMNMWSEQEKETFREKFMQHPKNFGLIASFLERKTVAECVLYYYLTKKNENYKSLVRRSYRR

Row | Structure (SMILES) | IC50 (HDAC8) [nM] | GI50 ([1]; Homo sapiens, NCI-H1975, 72 h) [nM] | GI50 ([2]; Homo sapiens, HCC827, 72 h) [nM] | GI50 ([3]; Homo sapiens, K562, 72 h) [nM] | GI50 ([4]; Homo sapiens, KBM5, 72 h) [nM] | GI50 ([5]; Homo sapiens, 72 h) [nM] | GI50 [6, 8] [nM] | GI50 [6, 9] [nM] | GI50 [7, 10] [nM] | GI50 [7, 11] [nM] | IC50 (HDAC3) [nM] | IC50 (HDAC11) [nM] | GI50 [6, 14] [nM] | GI50 [7, 15] [nM] | also measured
1 | C/C=C1\NC(=O)c2cccc(n2)CNC(=O)C[C@@H](/C=C/CCSC(=O)CCCCCCC)OC(=O)[C@H](CC(C)C)NC1=O [Compound 241] | 33 | 51 | 34 | 41 | 71 | 57 | 170 | 170 | 25 | 20 | 62 | 69 |  |  | 
2 | C/C=C1\NC(=O)c2cccc(n2)CNC(=O)C[C@@H](/C=C/CCSC(=O)CCCCCCC)OC(=O)[C@H](CSCC)NC1=O [Compound 242] | 55 | 21 | 79 | 55 | 56 | 31 | 950 | 950 | 170 | 170 | 32 | 67 |  |  | 
3 | C/C=C1\NC(=O)c2nc(ccc2C)CNC(=O)C[C@@H](/C=C/CCSC(=O)CCCCCCC)OC(=O)[C@H](C(C)C)NC1=O [Compound 243] | 129 | 43 | 37 | 32 | 93 | 23 | 520 | 520 | 470 | 470 |  |  |  |  | IC50 (HDAC3; [12]): 48 nM; IC50 (HDAC11; [13]): 187 nM
4 | C=C1NC(=O)c2cccc(n2)CNC(=O)C[C@@H](/C=C/CCSC(=O)CCCCCCC)OC(=O)[C@H](C(C)C)NC1=O [Compound 244] | 89 | 73 | 28 | 53 | 23 | 83 | 770 | 770 | 990 | 990 |  |  |  |  | IC50 (HDAC3; [12]): 32 nM; IC50 (HDAC11; [13]): 37 nM
5 | CCCCCCCC(=O)SCC/C=C/[C@@H]1CC(=O)NCc2cccc(n2)C(=O)NC(CC)C(=O)N[C@@H](C(C)C)C(=O)O1 (some centres unmarked) [Compound 245] | 102 | 28 | 96 | 83 | 11 | 53 | 140 | 140 | 860 | 860 |  |  |  |  | IC50 (HDAC3; [12]): 52 nM; IC50 (HDAC11; [13]): 126 nM
6 | CCCCCCCC(=O)SCC/C=C/[C@@H]1CC(=O)NCc2cccc(n2)C(=O)NCC(=O)N[C@@H](C(C)C)C(=O)O1 [Compound 246] | 132 | 63 | 53 | 12 | 56 | 41 | 870 | 870 | 130 | 130 |  |  |  |  | IC50 (HDAC3; [12]): 87 nM; IC50 (HDAC11; [13]): 235 nM
7 | C/C=C1\NC(=O)c2cccc(n2)NC(=O)C[C@@H](/C=C/CCSC(C)=O)OC(=O)[C@H](C(C)C)NC1=O [Example 22] | 47 | 41 | 59 | 34 | 72 | 39 |  |  |  |  | 61 | 97 | 4070 | 390 | 
8 | C/C=C1\NC(=O)c2nccc(n2)CNC(=O)C[C@@H](/C=C/CCSC(C)=O)OC(=O)[C@H](C)NC1=O [Example 24] | 63 | 37 | 31 | 37 | 68 | 35 |  |  |  |  | 43 | 97 | 220 | 30 | 
9 | C/C=C1\NC(=O)c2nc(ccc2F)CNC(=O)C[C@@H](/C=C/CCSC(=O)CC)OC(=O)[C@H](C(C)C)NC1=O [Example 45] | 25 | 34 | 61 | 33 | 94 | 67 |  |  |  |  | 41 | 92 | 60 | 30 | 
10 | C/C=C1\NC(=O)c2nc(ccc2F)CNC(=O)C[C@@H](/C=C/CCSC(C)=O)OC(=O)[C@H](C(C)C)NC1=O [Example 48] | 14 |  |  |  |  |  |  |  |  |  | 47 | 93 | 40 | 30 | GI50 [1]: 28 nM; GI50 [2]: 42 nM; GI50 [3]: 28 nM; GI50 [4]: 76 nM; GI50 [5]: 81 nM
11 | C/C=C1\NC(=O)c2nc(ccc2F)CNC(=O)C[C@@H](/C=C/CCSC=O)OC(=O)[C@H](C(C)C)NC1=O [Example 51] | 41 | 63 | 72 | 46 | 83 | 65 |  |  |  |  | 51 | 103 | 70 | 20 | 
12 | C/C=C1\NC(=O)c2nc(ccc2F)CNC(=O)C[C@@H](/C=C/CCSC(=O)CCCCCCC)OC(=O)[C@H](CC)NC1=O [Example 54] | 34 | 43 | 51 | 29 | 99 | 49 |  |  |  |  | 34 | 99 | 50 | 30 | 
13 | C/C=C1\NC(=O)c2nc(ccc2F)CNC(=O)C[C@@H](/C=C/CCSC(=O)CCCCCCC)OC(=O)[C@H](C)NC1=O [Example 60] | 53 | 42 | 57 | 27 | 74 | 63 |  |  |  |  | 16 | 88 | 50 | 10 | 
14 | C/C=C1\NC(=O)c2ccc(F)c(n2)CNC(=O)C[C@@H](/C=C/CCSC(=O)CCCCCCC)OC(=O)[C@H](C)NC1=O [Example 62] | 37 | 26 | 83 | 16 | 91 | 64 |  |  |  |  | 37 | 79 | 80 | 30 | 
15 | C/C=C1\NC(=O)c2nc(ccc2F)CNC(=O)C[C@@H](/C=C/CCSC(C)=O)OC(=O)[C@H](C)NC1=O [Example 63] | 29 | 34 | 94 | 53 | 93 | 59 |  |  |  |  | 39 | 91 | 90 | 40 | 
16 | C/C=C1\NC(=O)c2ccc(F)c(n2)CNC(=O)C[C@@H](/C=C/CCSC(=O)CCCCCCC)OC(=O)[C@H](Cc2ccccc2)NC1=O [Example 71] | 41 | 51 | 84 | 63 | 73 | 55 |  |  |  |  | 34 | 96 | 80 | 20 | 
17 | C/C=C1\NC(=O)c2ccc(F)c(n2)CNC(=O)C[C@@H](/C=C/CCSC(C)=O)OC(=O)[C@H](CCCCN)NC1=O [Example 74] | 435 | 29 | 43 | 39 | 37 | 37 |  |  |  |  | 231 | 672 | 40 | 20 | 
